The source of these data is PubChem BioAssay AID434951 (Broad Institute, 2010).

The EC50 is the midpoint of the concentration-response curve.

Activity calls are given as the source filed them.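 How the source made its calls: active means a fitted half-maximal concentration EC50 for the rise in nuclear signal no higher than ten times the top dose tested; inconclusive means flat fit with activity between 30% and 70%, or unusable fit; inactive means EC50 beyond ten times the top dose.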

For the experiment, the target named is Hypoxia-inducible factor 1-alpha (Homo sapiens) (UniProt Q16665). Description: HIF pathway activation, GFP-HIF1alpha translocation – imaging, fluorescence, U2OS GFP-HIF1alpha, confirmation (AID 434951). Conditions: U2OS GFP-HIF1alpha nuclear intensity, high-content imaging.
Chain of Hypoxia-inducible factor 1-alpha (Homo sapiens) (Q16665 whole entry, looked up): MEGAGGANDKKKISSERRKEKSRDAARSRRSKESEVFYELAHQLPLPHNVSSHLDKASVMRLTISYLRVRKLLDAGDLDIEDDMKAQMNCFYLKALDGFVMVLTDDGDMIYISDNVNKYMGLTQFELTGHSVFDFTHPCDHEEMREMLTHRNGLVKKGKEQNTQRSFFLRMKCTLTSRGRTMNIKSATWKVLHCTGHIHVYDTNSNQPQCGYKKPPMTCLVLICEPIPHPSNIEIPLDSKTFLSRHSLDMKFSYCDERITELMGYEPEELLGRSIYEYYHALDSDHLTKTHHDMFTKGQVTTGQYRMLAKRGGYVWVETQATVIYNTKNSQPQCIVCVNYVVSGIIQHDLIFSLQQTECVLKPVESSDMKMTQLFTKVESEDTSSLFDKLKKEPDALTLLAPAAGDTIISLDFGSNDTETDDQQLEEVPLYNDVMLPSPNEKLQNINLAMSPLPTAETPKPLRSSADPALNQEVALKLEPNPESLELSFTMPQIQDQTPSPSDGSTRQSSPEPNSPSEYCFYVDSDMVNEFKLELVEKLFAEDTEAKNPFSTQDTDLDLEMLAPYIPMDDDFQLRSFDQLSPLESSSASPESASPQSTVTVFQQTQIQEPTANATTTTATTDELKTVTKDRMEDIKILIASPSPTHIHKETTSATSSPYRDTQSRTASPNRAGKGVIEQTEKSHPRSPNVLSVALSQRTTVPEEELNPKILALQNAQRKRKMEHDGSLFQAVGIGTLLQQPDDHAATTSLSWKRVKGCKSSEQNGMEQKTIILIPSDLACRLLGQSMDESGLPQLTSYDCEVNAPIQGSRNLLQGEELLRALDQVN
Consider `Cc1ccc(C)c(OCC(=O)N2CCN(Cc3ccc4c(c3)OCO4)CC2)c1`, for which the EC50 was > 35 µM (inactive).

Turning to `Cn1c(SCC(=O)Nc2ccccc2)nnc1-c1ccc(NC(=O)CCc2ccccc2)cc1`, the EC50 was > 35 µM (inactive). With `CC1(C)Cc2c(C#N)c(SCCC#N)nc(N3CCOCC3)c2CO1` the figure was > 35 µM (inactive).

In the case of `O=C(O)c1cccnc1SCc1ccccc1Cl`, the EC50 is > 35 µM (inactive). With `CC(C)c1nc(CNC(=O)CCc2nnc(-c3ccsc3)o2)cs1` the figure was > 35 µM (inactive); with `Cc1ccc2[nH]c(C(=O)N/N=C/c3ccccc3O)c(C)c2c1`, 7.06 µM. With `Cc1ccc(-c2nnc(Sc3nc4ccccc4o3)c3ccccc23)cc1` the figure was 16.9 µM. As to `O=C(CCSc1nc2ccccc2s1)N/N=C/c1c(O)ccc2ccccc12`, the EC50 is 11.5 µM. With `COc1ccccc1-c1cc(C(F)(F)F)nc(S(=O)(=O)CCCC(=O)NC(C)C)n1` the figure was > 35 µM (inactive); with `Cc1ccc(/C=N/NC(=O)c2c(-c3ccccc3)noc2C)c(O)c1`, 6.81 µM; with `Cc1ccccc1N=Nc1ccc(O)c2ncccc12`, 5.04 µM. For the molecule `CSc1sc(C(=O)N2CCCCC2)c(-c2cccs2)c1C#N`, the EC50 was > 35 µM (inactive). For `COc1ccc2nc(NC(=O)c3cccs3)sc2c1`, the EC50 is > 35 µM (inactive). With `CC(=O)N(O)CCCCCNC(=O)CCC(=O)N(O)CCCCCNC(=O)CCC(=O)N(O)CCCCCN` the figure was 5.56 µM. With `CC(=O)Nc1ccc2c(c1)CCCC2=O` the figure was > 35 µM (inactive); with `Cc1ccc2c(c1)C1NC(=S)NC(C)(O2)C1C(=O)Nc1ccc(Cl)cc1` (stereo unspecified), > 35 µM (inactive). With `O=C(N/N=C/c1cc(Br)ccc1O)c1ccncc1`, the EC50 was > 35 µM (inactive). With `CC(=O)Nc1ccc(S(=O)(=O)Nc2ccc(S(=O)(=O)Nc3nccs3)cc2)cc1` the figure was > 35 µM (inactive). With `O=[N+]([O-])c1ccc(N=Cc2ccc(Br)c([N+](=O)[O-])c2)cc1` the figure was 15.4 µM; with `OCCCNc1c2ccccc2nc2ccccc12`, > 35 µM (inactive); with `O=C(CCCCCN1C(=O)c2ccccc2C1=O)Nc1ccc2c(c1)OCCO2`, > 35 µM (inactive). With `CCN(CCCNC(=O)CCc1nc(-c2ccc(OC)cc2)no1)c1cccc(C)c1` the figure was > 35 µM (inactive). With `COc1ccc(OC)c(NC2=NCCCS2)c1`, the EC50 was > 35 µM (inactive). With `O=C(NCC1CCCO1)c1cc(-c2ccccc2F)no1` (stereo unspecified) the figure was 21.7 µM; with `Oc1c(CN2CCCCC2)cc(COCc2ccccc2)c2cccnc12`, 11.9 µM; with `N/C(=N\OC(=O)C(c1ccccc1)c1ccccc1)c1cccnc1`, > 35 µM (inactive). With `CCC/C(=N/NC(=O)c1cccc(Cl)c1)c1ccccc1` the figure was > 35 µM (inactive); with `CCCC(=O)NC(c1ccccc1OC)c1ccc2cccnc2c1O` (stereo unspecified), 5.97 µM; with `CC(C)(C)NC(=O)COC(=O)c1ccc(Cl)nc1`, > 35 µM (inactive).

Take `COc1ccc(C(=O)N/N=C(\c2ccccc2)c2ccccn2)cc1`: the EC50 is 11.5 µM. With `Cc1ccc(-c2cc(C(=O)N3CCCCCC3)no2)cc1` the figure was > 35 µM (inactive); with `CCCn1c(=NC(=O)c2c(-c3c(F)cccc3Cl)noc2C)c(C(=O)OCC)cc2c(=O)n3ccccc3nc21`, 22.2 µM; with `N#Cc1ccccc1S(=O)(=O)N1CCN(c2cnccn2)CC1`, > 35 µM (inactive). In the case of `Cn1ncc(Br)c1C(=O)OCC(=O)Nc1nc(-c2ccccc2)cs1`, the EC50 is > 35 µM (inactive).

On to `Brc1ccc(N/N=C(/N=Nc2nn[nH]n2)c2ccccc2)cc1`, for which the EC50 was 5.73 µM. Turning to `CCOC(=O)c1c(S(=O)(=O)NCc2ccc(C)o2)c(C)n(C)c1C`, the EC50 was > 35 µM (inactive). With `O=C(c1cc(Br)ccc1Cl)N1CCC2(CC1)OCCO2` the figure was > 35 µM (inactive); with `COc1ccc(C(=O)Nc2ccc(C(=O)NCCc3ccc(OC)c(OC)c3)cc2)cc1`, > 35 µM (inactive).

For the molecule `CCN(CC)c1ccc(/C=N/NC(=O)c2ccoc2C)c(O)c1`, the 50% effective concentration (EC50) is 10.9 µM. Take `CCOC(=O)N1CCC(Nc2c(-c3ccccc3)c(=O)c2=O)CC1`: the EC50 is > 35 µM (inactive). Turning to `O=C(c1ccc(OC2CCN(Cc3ccc(F)cc3)CC2)cc1)N1CCCC1`, the EC50 was > 35 µM (inactive). For the molecule `O=C1CCCC2=C1C(Cc1ccccc1)C1=C(CCCC1=O)O2`, the EC50 was > 35 µM (inactive). As to `CCCn1c2ccccc2c2cnn(CC(=O)NC3CCCC(C)C3C)c(=O)c21` (stereo unspecified), the EC50 was 7.26 µM.

`O=C(Nc1ccc2ccccc2c1)c1ccccc1O`: the EC50 is > 35 µM (inactive). With `CCOC(=O)C(NC(C)=O)(N1CCOCC1)C(F)(F)F` (stereo unspecified) the figure was > 35 µM (inactive); with `Cn1c(CO)nc2c3ccccc3ccc21`, > 35 µM (inactive).

As to `CCN(CC)c1ccc(/C=N/NC(=O)c2c(Cl)cnn2C)c(O)c1`, the EC50 is 2.05 µM. `CN(Cc1cccnc1)C(=O)c1cc(COc2ccc3ncccc3c2)on1`: the EC50 was > 35 µM (inactive). With `CC1CN(c2nc3ccccn3c(=O)c2/C=C(\C#N)C(=O)N2CCOCC2)CC(C)O1` (stereo unspecified) the figure was > 35 µM (inactive); with `COc1cc(C(=O)N/N=C(\c2ccccc2)c2ccccn2)cc(OC)c1OC`, 11.3 µM; with `COc1cc(SC)ccc1C(=O)NCCc1ccccc1`, > 35 µM (inactive). As for `Cc1ccc(Cl)cc1N1CCN(CC(O)COCc2ccco2)CC1` (stereo unspecified), the EC50 was > 35 µM (inactive). With `COc1ccc(N2CCN(C(=O)C3COc4ccccc4O3)CC2)cc1` (stereo unspecified) the figure was > 35 µM (inactive). With `COc1cccc(/C=N/Nc2ncnc3c2ncn3Cc2ccccc2)c1O` the figure was 5.97 µM; with `COc1ccc(NC(=S)N2CCN(C(=O)c3ccccc3)CC2)cc1`, > 35 µM (inactive). With `CCCCCC(=O)NNC(=S)NC(=O)c1cccc([N+](=O)[O-])c1` the figure was > 35 µM (inactive); with `O=S(=O)(CCSc1nc2ccccc2s1)c1nc2ccccc2s1`, > 35 µM (inactive). With `CCN(CC)c1ccc(/C=N/NC(=O)c2ccco2)c(O)c1`, the EC50 is 6.97 µM. With `CCCCc1ccc(NC(=O)C2CCN(S(C)(=O)=O)CC2)cc1` the figure was > 35 µM (inactive); with `Cc1ccc(C)c(SCC(=O)OCC(=O)N2CC(C)OC(C)C2)c1` (stereo unspecified), > 35 µM (inactive). Consider `C=CCNc1nc(-c2ccccn2)nnc1-c1ccccc1`, for which the EC50 is 7.41 µM. With `COc1cc(C2CC(=O)N3CN(Cc4ccccc4)CSC3=C2C#N)ccc1OCc1ccccc1` (stereo unspecified) the figure was > 35 µM (inactive); with `COc1ccccc1-c1cc(C(F)(F)F)nc(S(=O)(=O)CCCC(=O)N2CCCCC2C)n1` (stereo unspecified), > 35 µM (inactive). With `Cn1c(CC(=O)Nc2ccccc2)cc2ccccc21` the figure was > 35 µM (inactive); with `Cc1ccc(NC(=S)N(Cc2cccs2)Cc2cc3cccc(C)c3[nH]c2=O)cc1`, > 35 µM (inactive). With `c1ccc(N=Nc2ccc3cccccc2-3)cc1` the figure was 33.1 µM. With `CN(C)c1ccc(N=Nc2ccc(S(N)(=O)=O)cc2)cc1`, the EC50 was > 35 µM (inactive).

As to `CCCn1c(SCC(=O)Nc2ccccc2CC)nnc1C(C)C`, the EC50 is > 35 µM (inactive). For the molecule `CC(=O)N1c2ccc(S(=O)(=O)NCCc3ccccc3)cc2CC1C` (stereo unspecified), the EC50 was > 35 µM (inactive). With `COc1cc(C(=O)N2CCN(C(=O)Cc3ccccc3)CC2)cc(OC)c1OC` the figure was > 35 µM (inactive). Consider `O=C(N/N=C/c1cc(Br)ccc1O)C(c1ccncc1)N1CCOCC1` (stereo unspecified), for which the EC50 was > 35 µM (inactive).

Regarding `CCOC(=O)C(=Cc1ccc(OCc2ccc([N+](=O)[O-])cc2)c(OC)c1)C(=O)OCC`, the concentration giving a half-maximal response (EC50) was 7.32 µM.

For `Cc1ccc2nc(SCC(=O)N3CCCCC3)nc(=O)n2c1`, the EC50 was > 35 µM (inactive). For `CC(Oc1ccc2ccc(=O)oc2c1)C(=O)NCCN1CCOCC1` (stereo unspecified), the EC50 was > 35 µM (inactive). Regarding `COc1ccc(NC(=O)C(=O)NNC(=O)c2ccc(Cl)cc2Cl)cc1`, the EC50 is > 35 µM (inactive). With `COc1cccc(/C=N\NC(=O)Cn2nnc3ccccc32)c1O` the figure was > 35 µM (inactive). With `CC(=O)Nc1ccc(Nc2nc(C)c([N+](=O)[O-])c(Nc3ccc(NC(C)=O)cc3)n2)cc1` the figure was > 35 µM (inactive); with `CC(C)c1ccc2oc(=O)cc(CN3CCOCC3)c2c1`, > 35 µM (inactive); with `Cc1cccc(C)c1Nc1c(-c2ccccn2)nc2ccccn12`, 3.28 µM. With `CC1CC(C)CN(S(=O)(=O)c2ccc3c(c2)oc(=O)n3CC(=O)NCCCOC(C)C)C1` (stereo unspecified) the figure was > 35 µM (inactive). As to `CC1CCN(S(=O)(=O)c2ccc3c4c2CC(=O)N4CC(C)S3)CC1` (stereo unspecified), the EC50 is > 35 µM (inactive). As to `O=C(N/N=C/c1cc(O)ccc1Br)c1cccnc1`, the EC50 is > 35 µM (inactive). As to `ON=C1c2cc(OCCN3CCCCC3)ccc2-c2ccc(OCCN3CCCCC3)cc21`, the EC50 is 8.97 µM. With `COc1cccc(/C=N/Nc2ccc([N+](=O)[O-])cn2)c1O` the figure was 4.93 µM. For the molecule `O=C(O)c1cccc(-n2cccc2/C=C2/SC(=O)N(CC(=O)N3CCCC3)C2=O)c1`, the EC50 was > 35 µM (inactive). In the case of `COc1cccc(C(=O)CN2C(=O)C(C)(C)Oc3ccc(C(=O)N4CCOCC4)cc32)c1`, the EC50 was > 35 µM (inactive). With `Cc1ccc(-c2cc(C(F)(F)F)n3nc(C(=O)Nc4c(C)n(C)n(-c5ccccc5)c4=O)cc3n2)cc1` the figure was > 35 µM (inactive); with `CC(=O)c1cccc(NC(=O)CN(C)S(=O)(=O)c2cccc3nsnc23)c1`, > 35 µM (inactive). With `CC(=O)c1ccc(C(=O)N2CCCC(Nc3ccc(C(C)C)cc3)C2)s1` (stereo unspecified) the figure was > 35 µM (inactive); with `Cc1noc(C)c1COC(=O)C1CC(O)CN1S(=O)(=O)c1ccc(Cl)cc1` (stereo unspecified), > 35 µM (inactive); with `Nc1ccc(C(=O)Nc2ccc3nc(-c4ccncc4)[nH]c3c2)cc1`, > 35 µM (inactive).
